# From US10966957B2, “Method of treating cancer with combinations of histone deacetylase inhibitors (HDAC1) substances” (Research Cancer Institute of America, priority 2011, dated 2021)
# What was measured:
# [1] = test system: MBT-2 bladder transitional cell carcinoma, B16-F10 melanoma and LL/2 Lewis lung carcinoma; settings: depending on concentrations; cited from earlier work
# acites tumor cells = settings: injected peritoneally; cited from earlier work
# [2] = test system: cancer deemed no longer treatable by conventional methods; settings: cited from earlier work
# [3] = test system: human squamous cell carcinoma line; settings: injected interperitoneally; minimal effects on surrounding normal cells; cited from earlier work
# tyrosine kinase = settings: measured in 11 subjects; cited from earlier work
# patients with cancer = format: in vivo, human; settings: octreotide subcutaneously at 50-400 mcgs
# Text: As of October 2011, 40 patient charts were selected randomly and reviewed. The inclusion criteria were diagnosis of cancer. No patients were excluded. Patients were aged 27 to 83 years. All were diagnosed by their oncologist/physician and were offered standard conventional treatment of surgery, traditional chemotherapy or radiation.
# The patients were managed based on unique developed protocols that were designed in correlation with available research studies and clinical trials that implicate using specific natural and synthetic IV therapies. IV therapies are targeted at epigenetic level and consist of antioxidants, quercetin, DCA, sodium phenyl butyrate, and lipoic acid separately or in combination. All patients received one or more of such treatments. […] Doses of each treatment remained the same or close on each treatment, Quercetin was given intravenously at the dose 0.5 to 1.0 gram (50 mg/ml).
# The progression of disease was measures during the course of treatment through tumor markers, Imaging studies and markers for cancer growth, necrosis, LDH, and inflammation, CRP, as well as the Natural killer cell activity or lymphocyte count and Circulatory tumor cells.
# [4] = test system: refractory solid tumor malignancies; settings: cited from earlier work
# prostate cancer cells = settings: cited from earlier work
compound,measurement,setting,value
O=C(O)CCCCC1CCSS1 (centres unmarked) [Lipoic acid],Reduction of cell number,[1],10-50%
O=c1c(O)c(-c2ccc(O)c(O)c2)oc2cc(O)cc(O)c12 [Quercetin],Increase in lifespan,acites tumor cells,20%
same,Dose recommended for phase 2 studies,[2]; intravenous,≤ 1400 mg/m2
same,Patients with sustained decreases in unique cancer markers,"[2]; of 50 patients, metastatic hepatocellular carcinoma and stage 4 metastatic ovarian cancer",two
same,Suppression as defined by the radiological criteria of WHO,"[2]; up to 1700 mg/m2 intravenous for 3 weeks, 50 patients",None of the patients achieved suppression
same,Inhibition of cancer growth,[3],selective inhibition of cancer growth
same,Subjects with a decrease in tyrosine kinase levels,tyrosine kinase,9
Octreotide,Lowering of IgF-1 by octreotide in the protocols,patients with cancer,lowering the IgF-1 significantly
Sodium phenylbutyrate [SPB],Toxicity of oral doses,[4]; oral doses up to 36 grams per day,minimal toxicity
same,Patients with stable disease for more than 6 months while on the drug,[4]; oral,25%
same,Potency relative to phenylacetate,prostate cancer cells,more potent than phenylacetate
